Consider one compound from patent US11517512B2, “Personal care compositions comprising zinc : usnic acid complexes and methods of use” (Colgate-Palmolive Company, priority 2017, dated 2022).

The test system of one data set is Escherichia coli. Description: Minimal inhibitory concentration, broth micro dilution method. Conditions: overnight incubation, OD 610 nm, stock in DMSO, read-out: MIC E. Coli (G−). It is filed as cell-based. How it is done: (§1) Minimal inhibition concentration (MIC) is the lowest concentration of an antimicrobial agent that can inhibit the visible growth of a microorganism after overnight incubation. The MIC values of zinc:usnate complex and usnic acid against Staphylococcus aureus and Escherichia coli were determined with the broth micro dilution method. Briefly, 0.1% stock solutions were prepared in dimethyl sulfoxide (DMSO). Using a 96-well microtitre plate, the corresponding testing concentrations are 500, 250, 125, 62, 31, 16, 8, 4, 2, 1, 0.5 and 0.2 ppm, respectively. The optic density readings at 610 nm for each well were used to assess the level of bacterial growth.

The next data set concerns Staphylococcus aureus. Described as above. Conditions: overnight incubation, OD 610 nm, stock in DMSO, read-out: MIC S. aureus (G+). The format is cell-based. How it is done:
as §1

The conditions of data set [1]: DI water at 35° C.; Jin et al., J Solution Chem., 2013; cited from earlier work.

Values after ≈ are worked out from the molar mass of the structure shown.

One may read the MIC as the smallest concentration in the dilution series that meets the test's criterion for growth inhibition. With `CC(=O)c1c(O)c(C)c(O)c2c1OC1=CC(=O)C(C(C)=O)C(=O)C12C` (stereo not drawn) [Usnic Acid, usnic acid], the MIC is greater than 125 µg/mL in the data set with Escherichia coli and 4 µg/mL (≈ 11.6 µM) in the data set with Staphylococcus aureus. Also, the solubility in data set [1] is reported as 6.3 ppm.
